In patent US11241402B2, “Methods of treating liver fibrosis by administering 3-bromopyruvate” (The Johns Hopkins University, priority 2015, dated 2022):
“Also recorded” adds a separate entry of the source.

What was measured:
activated LX-2 cells [1] = experiment: Immunofluorescence / immunoblot of profibrogenic markers (α-SMA, CK-18); assay type: cell-based, human; settings: aLX-2 cells
Procedure: (§1) To analyze the effect of 3-BrPA on activated-LX-2 cells, the principle of metronomic therapy, a repeated but low, nonlethal dose of 3-BrPA ([…]) was adopted. A known number of cells were plated in 6-well plates, 10 cm petri dishes or chamber slides as required and the culture media was replaced with fresh culture media containing the drug(s) on alternative days. The cells were treated for a period of 13 days for immunofluorescence studies and 6 days for all other studies including biochemical analysis. Monotherapy involved treating the cells with 3-BrPA alone or AICAR (0.5 mM) in DMEM with 2.5% FBS. The concentration of AICAR was chosen based on the prior reports (Lim et al., 2012). Combination therapy involved using half of the dose used for the monotherapy of AICAR and 3-BrPA.
LX-2 cells were grown in chamber slides in the same media used for culture. […]
For western blotting, control and treated cells were washed in PBS, lysed in RIPA lysis buffer (Sigma-Aldrich) with a protease inhibitor cocktail and a phosphatase inhibitor cocktails (both from Sigma-Aldrich) at 4° C. using a dounce homogenizer. […] The clear supernatants were collected and the protein concentrations were analyzed using a 2-D Quant protein assay Kit (GE Healthcare) as described (Ganapathy-Kanniappan et al., 2009a). […]

activated LX-2 cells [2] = experiment: Metronomic therapy of activated-LX-2 cells: morphology / phenotype; assay type: cell-based, human; settings: for change in morphology / phenotype of aLX-2 cells: monotherapy, metronomic: 3-BrPA 25 μM or AICAR 0.5 mM
Description: LX-2, a human stellate cell line, was a gift of Dr. Scott L. Friedman from the Mount Sinai School of Medicine (New York, N.Y., USA). The LX-2 cells when cultured on plastic are active in fibrogenesis (Gaca et al., 2003), and these activated LX-2 cells were used in most experiments. De-activated (quiescent) LX-2 cells prepared by culturing the LX-2 cells on Matrigel (Gaca et al., 2003; Sohara et al., 2002; Troeger et al., 2012) were used as controls. The activated and de-activated LX-2 cells were then cultured in Dulbecco's Modified Eagle's Medium (DMEM) containing 10% FBS, 0.1% antibiotic (Penicillin-Streptomycin) and 0.1% Fungizone on plastic as described previously (Tang et al., 2003). Rat hepatic stellate cells were
as §1

[3] = tested on: rat hepatic stellate cells; experiment: Fibrotic markers in rat hepatic stellate cells (confocal α-SMA, MMP-9 immunoblot); assay type: cell-based
Description: (§2) isolated and cultured as described previously (Anania et al., 1996). Human primary hepatocytes were obtained from Invitrogen and cultured in William's medium (without phenol red) along with plating and maintenance supplements.
The level of MMP activity in the conditioned medium of control and treated LX-2 cells and/or rat HSCs was quantified by gelatin zymography. In brief, upon the completion of drug treatment protocol, media from both control and treated cells were removed, cells were rinsed with PBS and replaced with serum-free DMEM media and cultured overnight at 37° C. prior to the collection of media containing secreted proteins for further analysis. The media thus collected were concentrated using a 3000 Da centrifugal filter (Amicon Inc., Pineville, N.C., USA) at 2500 rpm for 30 minutes at 4° C. and then stored at −80° C. until further analysis. Protein (˜10 μg) samples from the conditioned media of control and treated cells were subjected to zymography as described (Kunjithapatham et al., 2014). The MMP activity was visualized as clear bands. The identity of the MMP associated with zymogram signal (activity) was verified by immunoblot analysis.

activated LX-2 cells [4] = experiment: Energy metabolism markers (immunofluorescence, immunoblot, lactate secretion); assay type: cell-based, human; settings: aLX-2 cells
Procedure: as §1
LX-2 cells were grown in chamber slides in the same media used for culture. They were fixed with 4% formaldehyde for 10 minutes, rapidly rehydrated with Phosphate-buffered saline (PBS) and permeabilized with a 0.20% Triton X-100 solution in PBS for imaging of MCT-1, MCT-4 and ATPSE. The cells were incubated with primary antibodies in PBS for 1 hour at room temperature in a humidified chamber. They were then washed and incubated at room temperature with secondary antibody labeled with Texas Red
For western blotting, control and treated cells were washed in PBS, lysed in RIPA lysis buffer (Sigma-Aldrich) with a protease inhibitor cocktail and a phosphatase inhibitor cocktails (both from Sigma-Aldrich) at 4° C. using a dounce homogenizer. The lysates were centrifuged at 12,000×g for 15 min at 4° C. to remove any cell debris. The clear supernatants were collected and the protein concentrations were analyzed using a 2-D Quant protein assay Kit (GE Healthcare) as described (Ganapathy-Kanniappan et al., 2009a). In brief, protein samples were resolved on a 4-12% Bis-Tris gel by electrophoresis with MOPS buffer or via 12% Bis-Tris gel electrophoresis with MES running buffer (for low molecular weight targets) and blotted onto PVDF membranes (BioRad, Hercules, Calif., USA) followed by immunoblotting with specific antibodies. Immune complexes were visualized by ECL-detection kit (GE Health Care).

activated LX-2 cells [5] = experiment: Gelatin zymography for MMP activity in conditioned medium, verified by immunoblot; assay type: cell-based, human; settings: aLX-2 cells, zymogram and immunoblots
Procedure: as §1
The level of MMP activity in the conditioned medium of control and treated LX-2 cells and/or rat HSCs was quantified by gelatin zymography. In brief, upon the completion of drug treatment protocol, media from both control and treated cells were removed, cells were rinsed with PBS and replaced with serum-free DMEM media and cultured overnight at 37° C. prior to the collection of media containing secreted proteins for further analysis. […]

activated LX-2 cells [6] = experiment: Collagen staining (trichrome) and collagen mRNA by qRT-PCR; assay type: cell-based, human; settings: aLX-2 cells
Procedure: Gene expression analysis was performed by using qRT-PCR with a sequence detection system (ABI 7900HT; Applied Biosystems, Bedford, Mass., USA). The total RNA was extracted and the cDNA thus synthesized were subjected to qRT-PCR analysis using SYBR Green PCR Kit (Applied Biosystems) for genes associated with invasiveness and motility like Vimentin (VIM), Cadherin-12 (CDH12), Snail (SNAI1), Transgelin (TGN) (31-33) and TaqMan PCR Kit for Coll1α (Mm 00801666_g1). The primers used for respective gene amplification were synthesized by RealTimePrimers.com (Elkins Park, Pa., USA) or Life Technologies (Coll1α): […]
Tissue sections were deparaffinized in xylene followed by rehydration through graded series of alcohol followed by staining for collagen using Masson's Trichrome stain (Sigma Aldrich, St. Louis, Mo.) or Sirius Red stain (PolySciences. Inc Warrington, Pa.). For in vitro studies, the LX-2 cells were grown in chamber slides containing appropriate growth medium. They were fixed with 4% formaldehyde for 10 minutes, rapidly rehydrated with Phosphate-buffered saline (PBS), following which, the staining was performed.

activated-LX-2 cells = experiment: Determination of nontoxic maximum tolerated dose (cell viability, Trypan-blue exclusion or intracellular ATP); assay type: cell-based, human; settings: maximum dose allowing more than 50% survival; 5-50 μM tested for 24, 48 and 72 hours
Procedure: To determine the nonlethal, maximum tolerated dose (MTD) of 3-BrPA for activated-LX-2 cells, the cell viability was assessed using either Trypan-blue exclusion or quantification of intracellular ATP level. The later was performed using the Cell-Titer Glo Assay kit (Promega Corp., Madison, Wis.) and the FLUOstar Omega plate reader (BMG Labtech, UK). In brief, cells plated in 96-well flatbottomed opaque plates were treated with different concentrations of 3-BrPA (5 μM, 10 μM, 25 μM and 50 μM) for 24, 48 and 72 hours followed by the quantification of intracellular ATP. The maximum dose of 3-BrPA that allowed more than 50% survival (a concentration <IC50) was selected for further experiments.

[7] = tested on: human primary hepatocytes; experiment: Morphology and cell viability of human primary hepatocytes at the metronomic dose; assay type: cell-based
Procedure: as §2, §1

SMILES | level of CK-18 (activated LX-2 cells [1]; immunofluorescence) | level of α-SMA (activated LX-2 cells [1]; immunofluorescence and immunoblot) | stability of phenotypic changes after withdrawal of the drug (activated LX-2 cells [2]; aLX-2 cells, 6 days post-treatment) | change in morphology of aLX-2 cells in the presence of AICAR (activated LX-2 cells [2]; combination of 3-BrPA and AICAR, half of the monotherapy doses) | change in morphology / phenotype of aLX-2 cells (activated LX-2 cells [2]) | α-SMA in rat hepatic stellate cells ([3]; confocal microscopic images) | secretion of MMP-9 in rat hepatic stellate cells ([3]; immunoblot) | expression level of lactate transporter MCT-4 (activated LX-2 cells [4]) | expression of ATPSE (F1-F0 ATPase) (activated LX-2 cells [4]) | expression of MCT-1 (activated LX-2 cells [4]) | level of lactate secretion (activated LX-2 cells [4]) | expression level of lactate dehydrogenase (LDH) (activated LX-2 cells [4]; immunoblot) | secretion of MMPs (MMP-2, MMP-9) (activated LX-2 cells [5]) | α1 (I) collagen mRNA (activated LX-2 cells [6]) | collagen (trichrome staining) (activated LX-2 cells [6]; text says liver collagen) | MTD (nonlethal, maximum tolerated dose) in aLX-2 cells (activated-LX-2 cells) [µM] | sensitivity / cell viability / toxicity, human primary hepatocytes ([7]; 3-BrPA 25 μM, in vitro) | morphological change of human primary hepatocytes ([7]; same metronomic dose (25 μM)) | toxicity to mouse hepatocytes (mouse hepatocytes)
O=C(O)C(=O)CBr [3-BrPA, 3-bromopyruvate] | prominent decrease | reduced | stable, even after withdrawal of the drug | promoted the changes even in the presence of AICAR | induced changes in phenotype including an elongated, spindle-shaped morphology | decrease | increase | increased | significantly downregulated | unaffected | increased | increased | elevated | decreased | decreased | 25 | not sensitive; also recorded: not toxic; also recorded: remained unaffected | did not under go any morphological change | not toxic
NC(=O)c1ncn([C@@H]2O[C@H](CO)[C@@H](O)[C@H]2O)c1N [AICAR, reference compound] |  |  |  |  | did not induce any change in morphology |  |  |  |  |  |  |  |  |  |  |  |  |  | 
